Results reported in the NIST ThermoML archive (doi:10.1016/j.tca.2012.07.014).
Numbers after ± are expanded uncertainties.

Settings: Crystal; visual observation

**Q.** With `CO[C@@]12[C@H](COC(N)=O)C3=C(C(=O)C(C)=C(N)C3=O)N1C[C@@H]1N[C@@H]12` [ametycine] as the compound, how does the Normal melting temperature read?
**A.** 360.00 ± 1 °C
